# In patent publication US11851410B2, “Sensors for detection of negatively charged phosphate-containing membranes and membrane components” (THE GOVERNING COUNCIL OF THE UNIVERSITY OF TORONTO, priority 2017, dated 2023):
# Columns and labels:
# [1] = test system: POPE (PE) zwitterionic vesicles; assay: Serial dilution vesicle fluorescence intensity experiments, PE vesicles; format: binding; details: sensor 25 μM (PSVue™380 1 μM), 50 mM HEPES, 5% DMSO, pH 7.5
# From the text: (§1) The following equations were used for the calculations: […]
# [2] = test system: POPG (PG) negatively charged vesicles; assay: Serial dilution vesicle fluorescence intensity experiments, PG vesicles; format: binding; details: sensor 25 μM (PSVue™380 1 μM), 50 mM HEPES, 5% DMSO, pH 7.5
# From the text: as §1
# [3] = test system: TOCL (CL) negatively charged vesicles; assay: Serial dilution vesicle fluorescence intensity experiments, CL vesicles; format: binding; set-up: ΔΔFI: unit not given here; details: sensor 25 μM (PSVue™380 1 μM), 50 mM HEPES, 5% DMSO, pH 7.5
# From the text: as §1
# [4] = test system: DOPS (PS) negatively charged vesicles; assay: Serial dilution vesicle fluorescence intensity experiments, PS vesicles; format: binding; set-up: ΔΔFI: unit not given here; details: for ΔΔFI: sensor 25 μM (PSVue™380 1 μM), 50 mM HEPES, 5% DMSO, pH 7.5
# From the text: as §1
# It is estimated that a mammalian cell membrane is composed of 10% PS, with the majority located on the inner leaflet in the healthy state. However, during the early stages of apoptosis, this asymmetry is lost and PS becomes symmetrically distributed resulting in ˜5% of PS externalized to the outer leaflet. To address if compounds of this application could potentially be used for the detection of the PS externalization event during apoptosis, the exemplary sensors were screened against PC vesicles containing biologically-relevant levels of PS ([…]; assuming that approximately half of the lipid head groups will be exposed to the interior of the vesicle). The resulting ΔΔFI for vesicle concentrations up to 40 μM are presented in FIG. 7 and Table 1 (ΔΔFI for vesicle concentrations up to 200 μM is presented in FIG. 4).
# [5] = test system: POPA (PA) negatively charged vesicles; assay: Serial dilution vesicle fluorescence intensity experiments, PA vesicles; format: binding; details: for ΔΔFI: PA vesicles, sensor 25 μM (PSVue™380 1 μM), 50 mM HEPES, 5% DMSO, pH 7.5
# From the text: as §1
# [6] = test system: negatively charged vesicles (PA, PS, PG, CL); assay: Vesicle fluorescence intensity experiments, all negatively charged vesicles; format: binding
# Procedure: (§2) Small Unilamellar Vesicles (SUVs) were prepared by the extrusion method. Appropriate amounts of lipid in the desired proportions were weighed out to create 10 mM liposome suspensions. The lipids were then dissolved in a minimum amount of chloroform and vortexed to ensure thorough mixing. The excess solvent was then dried off under a gentle stream of nitrogen and allowed to dry overnight in a vacuum dessicator to remove any remaining traces of solvent. The resulting lipid film was then hydrated with 2 mL of HEPES buffer (50 mM HEPES, pH 7.5) for 1 h. The sample was then subjected to five cycles of freeze-thaw-vortex, cycling between liquid nitrogen and a 60° C. water bath. The resulting suspension of multilamellar vesicles (MLVs) was then extruded 25 times through a 0.1 μm polycarbonate membrane installed in a mini-extruder (Avanti Polar Lipids, Alabaster, AL) to form SUV.
# 10 mM stock solutions of vesicles were diluted separately to 400 μM and 80 μM in pH 7.5, 50 mM HEPES buffer. […] The sensors were dissolved to a concentration of 50 μM (from 800 μM stock solutions in 100% DMSO) in 50 mM HEPES, pH 7.5, 10% DMSO buffer. […] Fluorescence intensities measured were used to calculate the following parameters: ΔFIexc, ΔΔFIexc, ΔFImon, ΔΔFImon, ΔΔFIexc/mon and ΔΔΔFI. The following equations were used for the calculations: […]
# Of these, PC and PE represented the zwitterionic vesicles; PS (−1), PA (−1), PG (−1) and CL (−2) represented the negatively charged vesicles.
# (§3) The fluorescence enhancement of the excimer (ΔFIexc) species in the presence of vesicles was calculated using equation 1, which is defined as the ratio of the emission intensities of the sensor-vesicle sample and the sensor alone.
# [7] = test system: zwitterionic vesicles (PC, PE); assay: Vesicle fluorescence intensity experiments, zwitterionic vesicles; format: binding; details: sensor 25 μM; vesicles up to 200 μM; λex/em 350/476 nm
# Procedure: as §2
# 10 mM stock solutions of vesicles were diluted separately to 400 μM and 80 μM in pH 7.5, 50 mM HEPES buffer. […] Fluorescence intensities measured were used to calculate the following parameters: ΔFIexc, ΔΔFIexc, ΔFImon, ΔΔFImon, ΔΔFIexc/mon and ΔΔΔFI. […]
# as §3
# [8] = test system: E. coli K-12 BW25113 cells; assay: Proof-of-concept E. coli titration (fluorometry); format: cell-based; details: sensor 10 μM; 50 mM HEPES, 75 mM NaCl, 1% BSA, 0.4% DMSO, pH 7.5
# [9] = test system: Gram-positive bacteria (B. subtilis, B. megaterium, M. luteus, S. epidermidis); details: sensor 10 μM; λex/em 350/476 nm
# Procedure: Bacteria samples were titrated from 10^8-10^10 cells/mL in a large-volume 12 well plate. Bacteria samples were added to black 384-well plates in triplicate.
# [10] = test system: E. coli K-12 BW25113 cells; details: 40 μM sensor; 10^7-10^8 CFU/mL
# Procedure: E. coli K-12 BW25113 cells were grown overnight in M9 minimal media and then harvested the following morning. Cells were then washed (spun at 5000 rpm for 10 min/wash) three times in buffer (50 mM HEPES, 75 mM NaCl, 1% BSA, 0.4% DMSO, pH 7.5). Cell concentrations were then determined using OD600 and cell samples were diluted to the appropriate concentrations.
# Samples were run at the Flow Cytometry Facility, Medical Sciences Building, University of Toronto, on a BD LSR Fortessa X20 using the UV laser (emission: 450/50 nm) with low flow rate (15 uL sample/min) for 2 min.
# Sample run using UV laser (BD LSR Fortessa X20, emission: 450/50 nm) in 50 mM HEPES, 75 mM NaCl, 1% BSA, 0.4% DMSO, pH 7.5. […] Sample run using UV laser (BD LSR Fortessa X20, emission: 450/50 nm) in 50 mM HEPES, 75 mM NaCl, 1% BSA, 0.4% DMSO, pH 7.5. […] Sample run using UV laser (BD LSR Fortessa X20, emission: 450/50 nm) in 50 mM HEPES, 75 mM NaCl, 1% BSA, 0.4% DMSO, pH 7.5. […] Sample run using UV laser (BD LSR Fortessa X20, emission: 450/50 nm) in 50 mM HEPES, 75 mM NaCl, 1% BSA, 0.4% DMSO, pH 7.5. […] Sample run using UV laser (BD LSR Fortessa X20, emission: 450/50 nm) in 50 mM HEPES, 75 mM NaCl, 1% BSA, 0.4% DMSO, pH 7.5.
# [11] = test system: DOPS (PS) negatively charged vesicles; assay: Serial dilution vesicle fluorescence intensity experiments, PS vesicles; format: binding; set-up: ΔΔFI: unit not given here; details: for ΔΔFI: sensor 25 μM (PSVue™380 1 μM), 50 mM HEPES, 5% DMSO, pH 7.5; remark: listed apart in the source
# [12] = test system: camptothecin treated MOLM-13 cells; assay: Apoptosis detection by flow cytometry; format: cell-based; details: camptothecin 10 μM, 7 hrs; I-3 50 μM, PSVue™380 90.9 μM
# Procedure: MOLM-13 cells were cultured in Roswell Park Memorial Institute (RPMI)-1640 Medium supplemented with 10% FCS and 1% antibiotic/antimycotic (Gibco, cat. 15240062).
# MOLM-13 cells were cultured to a density of 5.0×10^5 cells/mL in regular media and transferred to 6-well tissue culture treated plates (1.0×10^6 cells/well). Treated Cells. Camptothecin (100 μL of 210 μM camptothecin in media) was added to a final concentration of 10 μM (1% DMSO final). Untreated Cells. DMSO Vehicle (100 μL DMSO in media) was added (1% DMSO final). All cells were then incubated at 37° C. for 7 hrs. […] Cell samples were then treated simultaneously with either 1) exemplary compound I-3 (in HEPES buffer, final concentration of 50 μM), and propidium iodide (0.02 μg/μL) or 2) PSVue™380 (in HEPES buffer, final concentration of 90.9 μM as previously reported^39) and propidium iodide (0.02 μg/μL). Samples were then incubated for 15 min away from light at 37° C. and were then analyzed by flow cytometry (CytoFLEX S, BeckmanCoulter) using the near UV laser (exc: 375 nm, emi: 450/45 nm) and blue laser (exc: 488 nm, emi: 585/42 nm). Gates were set off of single stain samples.
# PA vesicles = assay: Zinc metalation fluorescence experiments; format: binding
# Procedure: Vesicle fluorescence intensity experiments were performed in the absence or presence of zinc(II) (trifluoromethanesulfonate salt). Unmetallated PSVue™380 (PSVue™380*) was also included for reference.
# All glassware was treated with 0.1 M HCl overnight, rinsed three times with MilliQ water, and oven dried. […] The sensor-zinc solutions were then combined with PA vesicles, prepared as described above, incubated as described above and the fluorescence emission intensity was then measured as described above.
# In an effort to eliminate this possibility, all glassware was acid-treated and all buffers were chelex-treated to remove any metals, and the screens were repeated with PA vesicles. For these experiments, original non-normalized FIexc values were analyzed.
# [13] = test system: WT and mutant E. coli strains; assay: Bacteria mutant strain knockout fluorimetry, E. coli; format: cell-based; details: sensor 10 μM; 10^8 CFUs/mL
# From the text: (§4) Fluorescence intensities were used to calculate the excimer emission in response to bacterial strains. Measurements were averaged over two triplicates.
# [14] = test system: WT and mutant B. subtilis strains; assay: Bacteria mutant strain knockout fluorimetry, B. subtilis; format: cell-based; details: sensor 10 μM; 10^8 CFUs/mL
# From the text: as §4
# [15] = 33% CL vesicles, 20 μM vesicles
# [16] = CL vesicles (50%), 5 μM vesicles
# [17] = CL vesicles (50%), 20 μM vesicles
# [18] = 25% PS vesicles, 20 μM vesicles
# [19] = 75% PS vesicles, 20 μM vesicles
# [20] = PS vesicles (50%), 5 μM vesicles
# [21] = PS vesicles (50%), 20 μM vesicles
smiles,measurement,setting,value
c1cc2ccc3ccc(CN4CCNCCNCCNCC4)c4ccc(c1)c2c34 [I-1],ΔΔFI,[1]; 5 μM vesicles,1
same,ΔΔFI,[1]; 20 μM vesicles,1
same,ΔΔFI,[2]; 5 μM vesicles,2.6
same,ΔΔFI,[2]; 20 μM vesicles,5.4
same,ΔΔFI,"[3]; 33% CL vesicles, 5 μM vesicles",2.8
same,ΔΔFI,[3]; [15],6.6
same,ΔΔFI,[3]; [16],3.3
same,ΔΔFI,[3]; [17],10.6
same,ΔΔFI,"[4]; 5% PS vesicles, 5 μM vesicles",1.3
same,ΔΔFI,"[4]; 5% PS vesicles, 20 μM vesicles",2.2
same,ΔΔFI,"[4]; 25% PS vesicles, 5 μM vesicles",1.5
same,ΔΔFI,[4]; [18],2.9
same,"linear response, upper vesicle concentration for PA",[5]; 25 μM sensor,50 µM
same,ΔFI with PA vesicles,"[5]; 50 μM PA vesicle concentration, sensor 25 μM",20
same,ΔΔFI,[5]; 5 μM vesicles,2.9
same,ΔΔFI,[5]; 20 μM vesicles,9.5
same,"linear response, vesicle concentration range",[6]; 25 μM sensor,2 to 40 µM
same,ΔFIexc for all negatively charged vesicles,"[6]; sensor 25 μM, vesicles up to 200 μM, λex/em 350/476 nm",≥ 5
same,ΔFIexc for zwitterionic vesicles,[7],~1
same,"sensing of increasing amounts of E. coli (ΔFI, ΔΔFI)",[8],capable of sensing increasing amounts of bacteria
same,detection of Gram-positive bacteria with a fluorometer in bulk solution,[9],can detect Gram-positive bacteria
same,detection of bacteria using a flow cytometer,[10],suitable for the detection of bacteria
same,ΔΔFI,"[11]; 75% PS vesicles, 5 μM vesicles",3.3
same,ΔΔFI,[11]; [19],9.4
same,ΔΔFI,[11]; [20],2.6
same,ΔΔFI,[11]; [21],6.6
c1cc2ccc3ccc(CN4CCCNCCNCCCNCC4)c4ccc(c1)c2c34 [I-3],ΔΔFI,[1]; 5 μM vesicles,1
same,ΔΔFI,[1]; 20 μM vesicles,1
same,ΔΔFI,[2]; 5 μM vesicles,2.4
same,ΔΔFI,[2]; 20 μM vesicles,6.2
same,ΔΔFI,"[3]; 33% CL vesicles, 5 μM vesicles",2.4
same,ΔΔFI,[3]; [15],6
same,ΔΔFI,[3]; [16],4.1
same,ΔΔFI,[3]; [17],10.2
same,ΔΔFI,"[4]; 5% PS vesicles, 5 μM vesicles",1.8
same,ΔΔFI,"[4]; 5% PS vesicles, 20 μM vesicles",3.5
same,detection of PC vesicles containing 5 and 25% PS,"[4]; 5 and 25% PS, corresponding to 2.5 and 12.5% of PS exposed to solution",efficiently detected
same,ΔΔFI,"[4]; 25% PS vesicles, 5 μM vesicles",2.2
same,ΔΔFI,[4]; [18],5.3
same,ΔΔFI,[5]; 5 μM vesicles,7.7
same,ΔΔFI,[5]; 20 μM vesicles,23.2
same,sensing PA compared to PSVue™380,[5]; Table 1 comparison,superior
same,ΔΔFI for PA vesicles (FIG. 4),"[5]; sensor 25 μM, vesicles 0-200 μM",~25
same,detection of early apoptotic cells (propidium iodide co-stain),[12],"detects a population of cells, undetected by the dead cell stain propidium iodide"
same,detection of Gram-positive bacteria with a fluorometer in bulk solution,[9],can detect Gram-positive bacteria
same,"sensitivity compared to PSVue™380, 5 μM PS vesicles",[11]; 5 μM PS vesicles,comparable
same,ΔΔFI,"[11]; 75% PS vesicles, 5 μM vesicles",6.5
same,ΔΔFI,[11]; [19],15.6
same,ΔΔFI,[11]; [20],3.5
same,ΔΔFI,[11]; [21],9.8
c1cc2ccc3ccc(CCCCN4CCCNCCNCCCNCC4)c4ccc(c1)c2c34 [II-4],"FIexc response to increasing PA vesicle concentrations, unmetallated","PA vesicles; acid-treated glassware, chelex-treated buffers, non-normalized FIexc",comparable responses
same,ability to detect PA vesicles in the absence of Zn^2+ (ΔFI),"PA vesicles; unmetallated sensors, PA vesicles 0-200 μM",retained their ability to detect PA
same,fluorescence fold of mutant E. coli strains compared to WT,[13],general decrease in fluorescence fold intensity
same,fluorescence fold of mutant B. subtilis strains compared to WT,[14],no changes
